From patent US20140335132A1, “BINDING DRUGS WITH NANOCRYSTALLINE CELLULOSE (NCC)” (priority 2010, published 2014)
Structures can show the parent of a compound that is named as a salt.

Legend:
[1] = Binding of hydrophobic drugs to NCC/CTAB nanocomplexes; assay type: physicochemical; conditions: for saturation of binding / binding efficiency to NCC/CTAB nanocomplexes: 12.9 mM CTAB, 2.5 mg NCC, 10 mM NaCl; for binding efficiency to NCC/CTAB nanocomplexes: 25° C., up to 100 μg of drug added; for final mass of drug bound to NCC/CTAB for the release studies: DTX and PTX incubated at 200 μg/ml, ETOP at 100 μg/ml
Method: In order to solubilize the hydrophobic drugs paclitaxel (PTX), docetaxel (DTX) and etoposide (ETOP), the surface of the NCC was first modified with CTAB. This was achieved by incubating increasing amounts of CTAB with 2.5 mg of NCC so the final CTAB concentration varied from 0 mM to 12.9 mM. An aliquot of 100 mM NaCl was added, resulting in a final NaCl concentration of 10 mM, which facilitated flocculation and subsequent separation of the NCC/CTAB nanocomplexes by centrifugation as described above. The NCC/CTAB was incubated with stock solutions of the drugs with increasing concentrations. Since these drugs are characterized by low aqueous solubility, they were solubilized in a minimal amount of either DMSO or diblock copolymer in 10 mM NaCl as previously described. The drug/NCC/CTAB suspensions were incubated at 25° C. with tumbling at 8 rpm for 30 minutes then centrifuged at 18000×g for 10 minutes to pellet the NCC/CTAB and bound drug. The amount of unbound drug in the supernatant was determined by HPLC using a Waters HPLC system with Millennium software and UV Vis detection. Separation was achieved using a Novapak™ C18 column with 20 μl injections and a mobile phase flow rate of 1 ml/min. The DTX and PTX mobile phase consisted of 58% acetonitrile, 37% dH2O and 5% methanol with detection at 232 nm. The mobile phase for ETOP was 27% acetonitrile, 1% acetic acid and 72% dH2O and detection was at 286 nm. Calibration curves were prepared for all drugs and were linear in the desired concentration range. The amount of drug bound to the NCC/CTAB was determined using equation (1).

[2] = In vitro release of drugs from NCC/CTAB nanocomplexes in PBS; assay type: physicochemical; conditions: 12.9 mM CTAB, 10 mM PBS, 37° C.
Method: (§1) Drug Release Procedure: DOX was bound to NCC for release studies by incubating a solution of 325 μg/ml of DOX in distilled water with a suspension containing 2.5 mg of NCC. In order to flocculate the NCC and allow for separation of the NCC/DOX nanocomplexes, NaCl was added to a final concentration of 10 mM. The suspension was centrifuged at 18000×g for 10 minutes to pellet the NCC/DOX and the drug binding was determined by UV Vis spectroscopy as described above. […] NCC/drug nanocomplexes with DTX, PTX and ETOP were prepared as described for the drug binding studies. The concentration of DTX and PTX that was incubated with the NCC suspension was 200 μg/ml and the concentration of ETOP was 100 μg/ml. […] The drug loaded NCC samples were resuspended in 1 ml of PBS followed by incubation at 37° C. with tumbling at 8 rpm. At predetermined times the suspensions were centrifuged at 18000×g for 10 minutes and the supernatant was removed for drug quantitation by UV Vis for DOX and TET or HPLC for DTX, PTX and ETOP, as previously described. At each sampling time point, fresh PBS was added to the tubes and the NCC/drug nanocomplexes were resuspended.

KU-7 cells = experiment: Cell binding and uptake of NCC/CTAB/fluorescein (fluorescence, confocal microscopy); assay type: cell-based
Method: FIGS. 10A, B, C and D are confocal micrographs of KU-7 cells incubated for 2 hours with NCC/CTAB/fluoroscein system with a fluorescein concentration of 0.25 mg/ml. (A) White light image of KU-7 cells. (B) Staining of the nuclei with DAPI. (C) Fluorescein in the cytoplasm. (D) An overlay of images B and C.

[3] = Retention of fluorescein bound to NCC/CTAB in aqueous media; assay type: physicochemical; conditions: upon resuspension or dilution in aqueous media
[4] = Binding of hydrophilic drugs to NCC; assay type: physicochemical; conditions: for final mass of drug bound to NCC for the release studies: 2.5 mg NCC, distilled water then 10 mM NaCl, DOX solution 325 μg/ml, TET solution 1000 μg/ml; for binding efficiency / maximum mass of drug bound to NCC: 2 mg NCC
Method: NCC Drug Binding Procedure: Doxorubicin hydrochloride (DOX) or tetracycline hydrochloride (TET), were dissolved in either 10 mM phosphate buffered saline (PBS) at pH 7.4, or dH2O with increasing drug concentrations ([drugadded]). Drug solutions (1.5 ml) were added to 0.5 ml of NCC suspension in a 2 ml microcentrifuge tube and incubated at 37° C. with tumbling shaking at 8 rpm for 30 minutes. Suspensions containing PBS or NaCl produced flocculated NCC/drug suspensions, which were centrifuged at 18000×g for 10 minutes to pellet the NCC and bound drug. The concentration of unbound drug in the supernatant ([drugunbound]) was assayed using a Varian 50 Bio UV Vis spectrophotometer (Varian, Inc., Mississauga, Ont.) using wavelengths of 482 nm and 364 nm for DOX and TET, respectively. The concentration of drug bound to the NCC ([drugbound]) was calculated using the following equation:
[drugbound]=[drugadded]−[drugunbound] (1)
In this case, the NCC/drug suspensions were transferred to dialysis bags with a molecular weight cut off of 10000 Da (Spectrum Laboratories, Inc., Rancho Dominguez, Calif.) and dialysed against distilled water overnight in the dark at 4° C. The concentration of unbound drug in the dialysate was determined by UV Vis spectroscopy, allowing for the calculation of the amount of drug bound to the NCC according to equation (1).

[5] = In vitro release of drugs from NCC in PBS; assay type: physicochemical; conditions: 10 mM PBS, 37° C.
Method: as §1

[6] = dispersion medium PBS 10 mM, pH 7.4
[7] = dispersion medium distilled water

SMILES | saturation of binding [1] | binding efficiency to NCC/CTAB nanocomplexes [1] | final mass of drug bound to NCC/CTAB for the release studies [1] | bound drug released within the first hour [2] | total bound drug released in two days [2] | final mass of drug bound to NCC for the release studies [4] | binding efficiency [4, 6] | maximum mass of drug bound to NCC [4, 6] | binding efficiency [4, 7] | maximum mass of drug bound to NCC [4, 7] | bound drug released in four hours [5] | bound drug released by one day (plateau) [5] | other results
CC(=O)O[C@@]12CO[C@@H]1C[C@H](O)[C@@]1(C)C(=O)[C@H](O)C3=C(C)[C@@H](OC(=O)[C@H](O)[C@@H](NC(=O)OC(C)(C)C)c4ccccc4)C[C@@](O)([C@@H](OC(=O)c4ccccc4)[C@H]21)C3(C)C [DTX, docetaxel] | approximately 200 μg | approximately 90% | 184 ± 4.8 µg | Approximately 26% | 59% | – | – | – | – | – | – | – | –
CC(=O)O[C@H]1C(=O)[C@@]2(C)[C@H]([C@H](OC(=O)c3ccccc3)[C@]3(O)C[C@H](OC(=O)[C@H](O)[C@@H](NC(=O)c4ccccc4)c4ccccc4)C(C)=C1C3(C)C)[C@]1(OC(C)=O)CO[C@@H]1C[C@@H]2O [PTX, paclitaxel] | approximately 200 μg | approximately 90% | 149 ± 4.8 µg | 20% | 44% | – | – | – | – | – | – | – | –
O=C1OC2(c3ccc(O)cc3Oc3cc(O)ccc32)c2ccccc21 [fluorescein] | – | – | – | – | – | – | – | – | – | – | – | – | time by which cellular uptake of fluorescein reached a maximum (KU-7 cells): ≤ 2 h; fluorescein remaining bound to NCC/CTAB [3]: More than 95%
COc1cc([C@@H]2c3cc4c(cc3[C@@H](O[C@@H]3O[C@@H]5CO[C@@H](C)O[C@H]5[C@H](O)[C@H]3O)[C@H]3COC(=O)[C@H]23)OCO4)cc(OC)c1O [ETOP, etoposide] | – | 48% | 63 ± 0.1 µg | – | – | – | – | – | – | – | – | – | maximum mass of drug bound to NCC/CTAB ([1]; 100 μg of drug added): 48 µg; total drug released over four days ([2]; four days): 75%
CN(C)[C@@H]1C(O)=C(C(N)=O)C(=O)[C@@]2(O)C(O)=C3C(=O)c4c(O)cccc4[C@@](C)(O)[C@H]3C[C@@H]12 [TET, tetracycline hydrochloride] | – | – | – | – | – | 187 ± 2.0 µg | 25% | 251 µg | 48% | 959 µg | approximately 90% | 93% | drug loading ([4]; almost 500 μg on 2 mg of NCC): 20 % w/w; mass of drug bound to NCC ([4]; bound to 2 mg of NCC (FIG. 2)): ~500 µg
COc1cccc2c1C(=O)c1c(O)c3c(c(O)c1C2=O)C[C@@](O)(C(=O)CO)C[C@@H]3O[C@H]1C[C@H](N)[C@H](O)[C@H](C)O1 [DOX, Doxorubicin hydrochloride] | – | – | – | – | – | 212 ± 3.5 µg | 65% | 122 µg | 83% | 1667 µg | ~85% | 87% | –
